Reference: article PMC11258486, “Phase 1 dose escalation study of the MDM2 inhibitor milademetan as monotherapy and in combination with azacitidine in patients with myeloid malignancies” (Cancer Medicine, 2024)
Values joined by “and” are separate entries in the source; they are usually repeats but may differ in a detail not shown here. Equal values may be shown once. Where a name gives a salt, the structure may show the parent alone.

System: patients with relapsed or refractory acute myeloid leukemia or high‐risk myelodysplastic syndromes
Protocol: This was a phase 1, open‐label, non‐randomized dose escalation study of milademetan as monotherapy (Part 1) or in combination with AZA (Part 1A; ClinicalTrials.gov identifier: NCT02319369).
Dose escalation of milademetan to determine the maximum tolerated dose (MTD) was guided by a Bayesian logistic regression model (BLRM) following escalation with overdose control principle with a starting dose of 60 mg based on safety and tolerability data from the first‐in‐human study of milademetan in solid tumors or lymphoma.[20]
In Part 1, 9 escalating dose cohorts (Figure S1) were investigated.
In Part 1A, milademetan was given in combination with AZA (75 mg/m^2 dose administered subcutaneously or intravenously on Days 1–7) with 2 dosing schedules of milademetan: in Cohorts 10 and 12, milademetan was administered QD for 10 days (Days 5–14; 160 and 200 mg, respectively); in Cohorts 11 and 13 milademetan was given QD for 7 days (Days 8–14; 160 and 200 mg, respectively).
Safety was the primary endpoint of the study and included treatment‐emergent adverse events (TEAE), serious adverse events (SAE), dose‐limiting toxicities (DLT), physical examination findings, and clinical laboratory values. TEAE were categorized according to the Medical Dictionary for Regulatory Activities (MeDRA) v17.0 and graded according to the National Cancer Institute‐Common Terminology for Adverse Events (NCI‐CTCAE) v5.0. Participants were followed up until 30 days after completion of study treatment. A DLT was defined as any TEAE of grade ≥3 not attributable to disease or disease‐related processes occurring during Cycle 1 in each dose‐level cohort.
The final MTD for each dosing regimen (QD 21/28 dosing and others) was decided based on considerations of the respective MTD estimated by the BLRM and on an overall assessment of safety data from subsequent cycles and pharmacokinetics (PK)/pharmacodynamics (PD) information collected at all different doses tested.
Cohorts of ≥3 DLT evaluable participants were enrolled per dose level, and the dose escalation decisions were guided by BLRM, governed by escalation with overdose control principle.

[1] = not assessed as related to milademetan

## CC1(C)CCC2(CC1)N[C@@H](C(=O)N[C@@H]1CC[C@@H](C(N)=O)OC1)[C@H](c1ccnc(Cl)c1F)[C@]21C(=O)Nc2cc(Cl)ccc21 [Milademetan monotherapy, milademetan tosylate hydrate]
human, in vivo
  Abdominal pain, TEAE Grade ≥3: 1 (2) n (%)
  Cough, TEAE Grade ≥3: 0 n (%)
  Cough, TEAE all grades: 3 (5) n (%)
  Decreased appetite, TEAE Grade ≥3: 1 (2) n (%)
  Decreased appetite, TEAE all grades: 13 (23) n (%)
  Dehydration, TEAE Grade ≥3: 1 (2) n (%)
  Dehydration, TEAE all grades: 6 (11) n (%)
  Depression, TEAE Grade ≥3: 0 n (%)
  Depression, TEAE all grades: 2 (4) n (%)
  Device‐related infection, TEAE Grade ≥3: 0 n (%)
  Device‐related infection, TEAE all grades: 0 n (%)
  Diarrhea, TEAE Grade ≥3: 3 (5) n (%)
  Diarrhea, TEAE all grades: 32 (56) n (%)
  Diarrhea, most common (>20%) TEAE: 25 [44%] n [%]
  Dizziness, TEAE Grade ≥3: 1 (2) n (%)
  Dizziness, TEAE all grades: 6 (11) n (%)
  Dyspnea, TEAE Grade ≥3: 0 n (%)
  Dyspnea, TEAE all grades: 8 (14) n (%)
  Epistaxis, TEAE Grade ≥3: 0 n (%)
  Epistaxis, TEAE all grades: 1 (2) n (%)
  Escherichia infection, TEAE Grade ≥3: 0 n (%)
  Escherichia infection, TEAE all grades: 0 n (%)
  Fatigue, TEAE Grade ≥3: 4 (7) n (%)
  Hyperuricemia, TEAE Grade ≥3: 2 (4) n (%)
  Hyperuricemia, TEAE all grades: 6 (11) n (%)
  Hypokalemia, TEAE Grade ≥3: 3 (5) n (%)
  Hypokalemia, TEAE all grades: 12 (21) n (%)
  Hypomagnesemia, TEAE Grade ≥3: 0 n (%)
  Hypomagnesemia, TEAE all grades: 9 (16) n (%)
  Hyponatremia, TEAE Grade ≥3: 2 (4) n (%)
  Hyponatremia, TEAE all grades: 2 (4) n (%)
  Hypophosphatemia, TEAE Grade ≥3: 0 n (%)
  Hypophosphatemia, TEAE all grades: 0 n (%)
  Hypotension, TEAE Grade ≥3: 2 (4) n (%)
  Hypotension, TEAE all grades: 9 (16) n (%)
  Increased ALT, TEAE Grade ≥3: 0 n (%)
  Increased ALT, TEAE all grades: 1 (2) n (%)
  Insomnia, TEAE Grade ≥3: 0 n (%)
  Insomnia, TEAE all grades: 4 (7) n (%)
  Lung infection, TEAE Grade ≥3: 11 (19) n (%)
  Lung infection, TEAE all grades: 11 (19) n (%)
  Maculopapular rash, TEAE Grade ≥3: 0 n (%)
  Maculopapular rash, TEAE all grades: 2 (4) n (%)
  Muscular weakness, TEAE all grades: 2 (4) n (%)
  Myalgia, TEAE Grade ≥3: 0 n (%)
  Myalgia, TEAE all grades: 1 (2) n (%)
  Nausea, TEAE Grade ≥3: 4 (7) n (%)
  Nausea, TEAE all grades: 39 (68) n (%)
  Nausea, most common (>20%) TEAE: 32 [56%] n [%]
  Neutropenia, TEAE Grade ≥3: 10 (18) n (%)
  Neutropenia, TEAE all grades: 10 (18) n (%)
  Oropharyngeal pain, TEAE Grade ≥3: 0 n (%)
  Oropharyngeal pain, TEAE all grades: 3 (5) n (%)
  Pancytopenia, TEAE Grade ≥3: 0 n (%)
  Pancytopenia, TEAE all grades: 0 n (%)
  Participants with DLT of cellulitis: 1 participant
  Participants with DLT of diarrhea: 1 participant
  Participants with DLT of fatigue: 1 participant
  Participants with DLT of hypokalemia: 1 participant
  Participants with DLT of nausea: 3 participants
  Participants with DLT of renal failure: 1 participant
  Participants with DLT of vomiting: 1 participant
  Peripheral edema, TEAE Grade ≥3: 0 n (%)
  Peripheral edema, TEAE all grades: 14 (25) n (%)
  Pneumonia, TEAE Grade ≥3: 6 (11) n (%)
  Pneumonia, TEAE all grades: 9 (16) n (%)
  Pyrexia, TEAE Grade ≥3: 1 (2) n (%)
  Pyrexia, TEAE all grades: 5 (9) n (%)
  Rhinorrhea, TEAE Grade ≥3: 0 n (%)
  Rhinorrhea, TEAE all grades: 1 (2) n (%)
  SAE: 39 (68.4) n (%)
  SAE: bacteremia: 3 [5%] n [%]
  SAE: cellulitis: 3 [5%] n [%]
  SAE: febrile neutropenia: 5 [9%] n [%]
  SAE: lung infection: 9 [16%] n [%]
  SAE: pneumonia: 7 [12%] n [%]
  SAE: pyrexia: 3 [5%] n [%]
  SAE: sepsis: 7 [12%] n [%]
  Sepsis, TEAE Grade ≥3: 8 (14) n (%)
  Sepsis, TEAE all grades: 8 (14) n (%)
  Tolerability relative to MTD: exceeded MTD
  Vomiting, most common (>20%) TEAE: 15 [26%] n [%]
In vivo
  Participants who experienced DLT: Eight
Monotherapy arm
  Dose interruptions due to TEAE: 12 (21%) n (%)
  Dose reductions due to TEAE: 3 (5%) n (%)
monotherapy, QD 21/28 and QD 14/28 dosing schedules
  Maximum tolerated dose (MTD) of milademetan: 160 mg
[1]
  Event associated with a fatal outcome: intracranial hemorrhage: 1 patient
  Event associated with a fatal outcome: lung infection: 2 patients
  Event associated with a fatal outcome: multi-organ failure: 1 patient
  Event associated with a fatal outcome: pneumonia: 1 patient
  Event associated with a fatal outcome: respiratory failure: 1 patient
  Event associated with a fatal outcome: sepsis: 4 patients
Per investigator assessment, safety analysis set
  Milademetan-related TEAE: 47 (82.5) n (%)
Safety analysis set
  Abdominal pain, TEAE all grades: 7 (12) n (%)
  Anemia, TEAE Grade ≥3: 9 (16) n (%)
  Anemia, TEAE all grades: 13 (23) n (%)
  Any TEAE, Grade ≥3: 48 (84%) n (%) and 48 (84) n (%) and 48 (84.2) n (%)
  Any TEAE, all grades: 57 n (%) and 57 (100) n (%)
  Arthralgia, TEAE Grade ≥3: 0 n (%)
  Arthralgia, TEAE all grades: 3 (5) n (%)
  Asthenia, TEAE Grade ≥3: 1 (2) n (%)
  Asthenia, TEAE all grades: 7 (12) n (%)
  Constipation, TEAE Grade ≥3: 0 n (%)
  Constipation, TEAE all grades: 3 (5) n (%)
  Contusion, TEAE Grade ≥3: 0 n (%)
  Contusion, TEAE all grades: 2 (4) n (%)
  Fatigue, TEAE all grades: 20 (35) n (%)
  Febrile neutropenia, TEAE Grade ≥3: 5 (9) n (%)
  Febrile neutropenia, TEAE all grades: 6 (11) n (%)
  Fluid overload, TEAE Grade ≥3: 0 n (%)
  Fluid overload, TEAE all grades: 2 (4) n (%)
  Fungal pneumonia, TEAE Grade ≥3: 2 (4) n (%)
  Fungal pneumonia, TEAE all grades: 2 (4) n (%)
  Headache, TEAE Grade ≥3: 0 n (%)
  Headache, TEAE all grades: 2 (4) n (%)
  Hemorrhoids, TEAE Grade ≥3: 1 (2) n (%)
  Hemorrhoids, TEAE all grades: 3 (5) n (%)
  Malaise, TEAE Grade ≥3: 0 (0) n (%)
  Malaise, TEAE all grades: 6 (11) n (%)
  Milademetan-related Grade ≥3 TEAE: 19 (33%) n (%) and 19 (33.3) n (%)
  Milademetan-related SAE: 7 (12%) n (%) and 7 (12.3) n (%)
  Milademetan-related TEAE associated with milademetan discontinuation: 5 (8.8) n (%)
  Muscular weakness, TEAE Grade ≥3: 0 n (%)
  TEAE associated with death: 9 (16%) n (%) and 9 (15.8)^a n (%)
  TEAE associated with milademetan discontinuation: 13 (23%) n (%) and 13 (22.8) n (%)
  Thrombocytopenia, TEAE Grade ≥3: 15 (26) n (%)
  Thrombocytopenia, TEAE all grades: 15 (26) n (%)
  Vomiting, TEAE Grade ≥3: 2 (4) n (%)
  Vomiting, TEAE all grades: 24 (42) n (%)
